Results as given in patent US20030232868A1, “Cyclic carboxylic acids as integrin antagonists” (priority 2000, published 2003).
Like-named read-outs stand apart in the source and are kept apart here.

Key:
[1] = test system: adhesion of Ramos cells to VCAM-1; assay: Adhesion of Ramos cells to immobilized VCAM-1 (domains 1-3) (Ramos—VCAM-1 assay); type: cell-based; settings: Homo sapiens
Source text: In Vitro Assay: Adhesion of Jurkat/Ramos Cells to Immobilized VCAM-1 (Domains 1-3)
Preparation of VCAM-1 (Extracellular Domains 1-3)
Complementary DNA (cDNA) encoding 7 domain form of VCAM-1 (GenBank accession #M60335) was obtained using Rapid-Screen™ cDNA library panels (OriGene Technologies, Inc) at Takara Gene Analysis Center (Shiga, Japan). The primers used were 5′-CCAAGGCAGAGTACGCAAAC-3′ (sense) and 5′-TGGCAGGTATTATTAAGGAG-3′ (antisense). PCR amplification of the 3 domain VCAM-1 cDNA was perform using Pfu DNA polymerase (Stratagene) with the following sets of primers: (U-VCAMd1-3) 5′-CCATATGGTACCTGATCAATTTAAAATCGAGACCACCCCAGAA-3′; (L-VCAMd1-3) 5′-CCATATAGCAATCCTAGGTCCAGGGGAGATCTCAACAGTAAA-3′. PCR cycle was 94° C. for 45 sec. 55° C. for 45 sec, 72° C. for 2 min, repeating 15 cycles. After the purification of the PCR product, the fragment was digested with KpnI-AvrII. The digested fragment was ligated into pBluescript IISK(−) (Strategene), which was linearized by digesting with KpnI-XhoI. The ligation was followed by transformation to a Dam/Dcm methylase-free E. coli strain SCS110 (Strategene) to create the donor plasmid pHH7. To direct VCAM-1 molecule into the insect cell secretory pathway, the VCAM-1 coding sequence was fused to signal peptide sequence of honeybee melittin. The resulting melittin-VCAM fusion was placed in correct orientation to the baculovirus polyhedrin promoter. Baculovirus transfer vector containing first 3-domain form VCAM-1 (pH 10) was constructed by ligation of 0.9 kb fragment from AvrII/Klenow/BclI digests of pH 7 into SalI/Klenow/BamHI digests of pMelBacB Invitrogen). Recombinant baculovirus was generated by using Bac-N-Blue™ Transfection kit (Invitrogen) according to the manufacture's instruction. The recombinant virus was amplified by infection to High-Five™ insect cells for 5-6 days, and virus titer was determined by plaque assay.
High-Five™ insect cells were pelleted in a 225 ml conical tube by centrifugation at 1000 rpm for 5 min. After discarding the supernatant, the pellet was resuspended in 1.5×10^9 pfu (MOI=5) of high-titer virus solution, followed by incubation for 1.5 hours at room temperature. The cells were pelleted again and washed once in fresh Express Five™ serum free medium. The cells were pelleted again and finally, resuspended in 200 ml of fresh Express Five TM medium, transferred to a 1,000 ml shaker flask, and incubated in a shaker at 27° C., 130 rpm, for 48 hours before the culture supernatant was collected. The purification of 3-domain form of VCAM-1 from the culture supernatant was performed by one-step anion exchange chromatography. Protein concentration was determined by using Coomassie protein assay reagent (Pierce) according to the manufacture's instruction.
Preparation of VCAM-1 Coated Microtiter Plates
Recombinant human VCAM-1 (extracellular domains 1-3) was dissolved at 1.0 μg/1 ml in PBS. Each well of the microtiter plates (Nalge Nunc International, Fluoro-nunc Cert, 437958) was coated with 100 μl of substrate or for background control with buffer alone for 15 hours at 4 C. After discarding the substrate solution, the wells were blocked using 150 μl per well of block solution Kirkegaard Perry Laboratories, 50-61-01) for 90 minutes. The plate was washed with wash buffer containing 24 mM Tris-HCl (pH 7.4), 137 mM NaCl, […] and 2 MM MnCl2 just before addition of the assay.
In Vitro Assay using Ramos Cells
Preparation of Fluorescence Labeled Ramos Cells:
Ramos cells (American Type Culture Collection, Clone CRL-1596) were cultured in RPMI 1640 medium (Nikken Bio Medical Laboratory, CM1101) supplemented with 10% fetal bovine serum (Hyclone, A-1119-L), 100 U/ml penicilin (Gibco BRL, 15140-122) and 100 μg/ml streptomycin (Gibco BRL, 15140-122) in a humidified incubator at 37° C. with 5% CO2. […]

Structure (SMILES) | IC50 ([1]; Cell Type Ramos, adhesion to VCAM-1 coated plates, 1 hour at 37 C, IC50 value ranges, read-out: IC50) [nM] | melting point [°C] | IC50 ([1]; Ramos, 1 h) [nM]
Cc1ccccc1NC(=O)Nc1ccc(CC(=O)N[C@@H](CCCCN)C(=O)Nc2ccc(C(=O)O)cc2)cc1.O=C(O)C(F)(F)F [Example 58] | < 500 | 168 to 169 | –
COCCCN(CC(=O)Nc1ccc(C(=O)O)cc1)C(=O)Cc1ccc(NC(=O)Nc2ccccc2C)cc1 [Example 59] | – | 210 to 218 | < 500
